This is an account of results in patent publication US10183009B2, “Therapeutic compounds and uses thereof” (GENENTECH, INC., priority 2014, dated 2019).

This experiment deals with BRD9 (Homo sapiens (Human), UniProt Q9H8M2). The experiment in a line: BRD9 AlphaLisa Binding Assay. The procedure:
After 20 minutes incubation at room temperature AlphaLisa Streptavidin Acceptor Beads (Perkin-A[…]) and AlphaLisa Nickel donor beads (Perkin AS 10 ID) were added to a final concentration of 15 ug/mL each.
Background: Bead proximity is the source of the signal in Alpha formats.

Structures are written as SMILES.

Chain of BRD9 (Q9H8M2 134-239 limits assumed): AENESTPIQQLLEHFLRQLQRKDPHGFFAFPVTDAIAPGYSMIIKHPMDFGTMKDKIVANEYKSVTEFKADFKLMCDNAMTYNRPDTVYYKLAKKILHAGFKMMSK

A word on the IC50: it is the concentration needed to halve the response being measured. Lower therefore signals greater potency. As to `CC(C)CCn1cc(-c2cccc(C(=O)N(C)C)c2)c2cc[nH]c2c1=O` [Example 10, 3-(6-isopentyl-7-oxo-1H-pyrrolo[2,3-c]pyridin-4-yl)-N,N-dimethyl-benzamide], the IC50 came to 320 nM.
Then `C/C=C/Cn1cc(-c2cc(F)cc(C(=O)N(C)C)c2)c2cc[nH]c2c1=O` [Example 19, 3-[6-[(E)-but-2-enyl]-7-oxo-1H-pyrrolo[2,3-c]pyridin-4-yl]-5-fluoro-N,N-dimethyl-benzamide], with 94 nM; and `C/C=C/Cn1cc(-c2ccc(C(=O)NC)cc2)c2cc[nH]c2c1=O` [Example 24, 4-[6-[(E)-but-2-enyl]-7-oxo-1H-pyrrolo[2,3-c]pyridin-4-yl]-N-methyl-benzamide], with 29 nM; and `C/C=C/Cn1cc(-c2cccc(C(N)=O)c2)c2cc[nH]c2c1=O` [Example 30, 3-[6-[(E)-but-2-enyl]-7-oxo-1H-pyrrolo[2,3-c]pyridin-4-yl]benzamide], with 510 nM.
Then `C/C=C/Cn1cc(-c2ccc(NS(C)(=O)=O)cc2)c2cc[nH]c2c1=O` [Example 34, N-[4-[6-[(E)-but-2-enyl]-7-oxo-1H-pyrrolo[2,3-c]pyridin-4-yl]phenyl]methanesulfonamide], with 22 nM; and `C/C=C/Cn1cc(-c2cc(C(=O)N(C)C)ccc2F)c2cc[nH]c2c1=O` [Example 41, 3-[6-[(E)-but-2-enyl]-7-oxo-1H-pyrrolo[2,3-c]pyridin-4-yl]-4-fluoro-N,N-dimethyl-benzamide], with 130 nM.
The compound `C/C=C/Cn1cc(-c2cccc(C(=O)N(C)C)c2F)c2cc[nH]c2c1=O` [Example 42, 3-[6-[(E)-but-2-enyl]-7-oxo-1H-pyrrolo[2,3-c]pyridin-4-yl]-fluoro-N,N-dimethyl-benzamide] returned an IC50 of 82 nM.
Then `C/C=C/Cn1cc(-c2ccc(C(=O)N3CCOCC3)c(Cl)c2)c2cc[nH]c2c1=O` [Example 51, 6-[(E)-but-2-enyl]-4-[3-chloro-4-(morpholine-4-carbonyl)phenyl]-1H-pyrrolo[2,3-c]pyridin-7-one], with 13 nM; and `C/C=C/Cn1cc(-c2ccc(C(=O)N3CCCC3)c(Cl)c2)c2cc[nH]c2c1=O` [Example 52, 6-[(E)-but-2-enyl]-4-[3-chloro-4-(pyrrolidine-1-carbonyl)phenyl]-1H-pyrrolo[2,3-c]pyridin-7-one], with 46 nM; and `C/C=C/Cn1cc(-c2cc(C(=O)N(C)C)ccc2OC)c2cc[nH]c2c1=O` [Example 64, 3-[6-[(E)-but-2-enyl]-7-oxo-1H-pyrrolo[2,3-c]pyridin-4-yl]-4-methoxy-N,N-dimethyl-benzamide], with 56 nM.
Then `C/C=C/Cn1cc(-c2cc(C(=O)NC)ccc2OC)c2cc[nH]c2c1=O` [Example 67, 3-[6-[(E)-but-2-enyl]-7-oxo-1H-pyrrolo[2,3-c]pyridin-4-yl]-4-methoxy-N-methyl-benzamide], with 35 nM; and `C/C=C/Cn1cc(-c2cc(C(=O)N3CCCC3)ccc2OC)c2cc[nH]c2c1=O` [Example 68, 6-[(E)-but-2-enyl]-4-[2-methoxy-5-(pyrrolidine-1-carbonyl)phenyl]-1H-pyrrolo[2,3-c]pyridin-7-one], with 39 nM.
Then `C/C=C/Cn1cc(-c2cc(C(=O)NCC(C)C)ccc2OC)c2cc[nH]c2c1=O` [Example 70, 3-[6-[(E)-but-2-enyl]-7-oxo-1H-pyrrolo[2,3-c]pyridin-4-yl]-N-isobutyl-4-methoxy-benzamide], with 28 nM; and `C/C=C/Cn1cc(-c2cc(C(=O)NCCN(C)C)ccc2OC)c2cc[nH]c2c1=O` [Example 72, 3-[6-[(E)-but-2-enyl]-7-oxo-1H-pyrrolo[2,3-c]pyridin-4-yl]-N-[2-(dimethylamino)ethyl]-4-methoxy-benzamide], with 23 nM.
`C/C=C/Cn1cc(-c2cc(C(=O)NCCO)ccc2OC)c2cc[nH]c2c1=O` [Example 73, 3-[6-[(E)-but-2-enyl]-7-oxo-1H-pyrrolo[2,3-c]pyridin-4-yl]-N-(2-hydroxyethyl)-4-methoxy-benzamide] showed an IC50 of 35 nM.
As for `C/C=C/Cn1cc(-c2cc(C(=O)NCCC)ccc2OC)c2cc[nH]c2c1=O` [Example 74, 3-[6-[(E)-but-2-enyl]-7-oxo-1H-pyrrolo[2,3-c]pyridin-4-yl]-4-methoxy-N-propyl-benzamide], the IC50 was found to be 27 nM.
In the case of `CCCCn1cc(-c2cc(C(=O)N3CC4(CN(C(C)=O)C4)C3)ccc2OC)c2cc[nH]c2c1=O` [Example 78, 4-[5-(2-acetyl-2,6-diazaspiro[3.3]heptane-6-carbonyl)-2-methoxy-phenyl]-6-butyl-1H-pyrrolo[2,3-c]pyridin-7-one], the IC50 was found to be 65 nM.
Under `CCCCn1cc(-c2ccc(C(C)(C)O)cc2OC)c2cc[nH]c2c1=O` [Example 80, 6-butyl-4-[4-(1-hydroxy-1-methyl-ethyl)-2-methoxy-phenyl]-1H-pyrrolo[2,3-c]pyridin-7-one] stands 73 nM.
Under `CCCCn1cc(-c2ccc(C(C)(C)O)cc2)c2cc[nH]c2c1=O` [Example 82, 6-butyl-4-[4-(1-hydroxy-1-methyl-ethyl)phenyl]-1H-pyrrolo[2,3-c]pyridin-7-one] stands 43 nM; under `CCCCn1cc(-c2cc(C(=O)N(C)C)ccc2OC)c2cc(C)[nH]c2c1=O` [Example 87, 3-(6-butyl-2-methyl-7-oxo-1H-pyrrolo[2,3-c]pyridin-4-yl)-4-methoxy-N,N-dimethyl-benzamide], 66 nM; under `COc1ccc(C(=O)N(C)C)cc1-c1cn(CCC2CC2)c(=O)c2[nH]c(C)cc12` [Example 88, 3-[6-(2-cyclopropylethyl)-2-methyl-7-oxo-1H-pyrrolo[2,3-c]pyridin-4-yl]-4-methoxy-N,N-dimethyl-benzamide], 300 nM.
Under `C/C=C/Cn1cc(-c2ccc(C(=O)N3CCCC3)cc2)c2cc(C)[nH]c2c1=O` [Example 91, 6-[(E)-but-2-enyl]-2-methyl-4-[4-(pyrrolidine-1-carbonyl)phenyl]-1H-pyrrolo[2,3-c]pyridin-7-one] stands 13 nM; under `C/C=C/Cn1cc(-c2ccc(C(=O)N3CCCC3)c(Cl)c2)c2cc(C)[nH]c2c1=O` [Example 92, 6-[(E)-but-2-enyl]-4-[3-chloro-4-(pyrrolidine-1-carbonyl)phenyl]-2-methyl-1H-pyrrolo[2,3-c]pyridin-7-one], 10 nM; under `C/C=C/Cn1cc(-c2ccc(C(=O)N3CCOCC3)c(F)c2F)c2cc(C)[nH]c2c1=O` [Example 93, 6-[(E)-but-2-enyl]-4-[2,3-difluoro-4-(morpholine-4-carbonyl)phenyl]-2-methyl-1H-pyrrolo[2,3-c]pyridin-7-one], 34 nM.
In turn, `C/C=C/Cn1cc(-c2cnc(C(=O)N3CCOCC3)c(Cl)c2)c2cc(C)[nH]c2c1=O` [Example 98, 6-[(E)-but-2-enyl]-4-[5-chloro-6-(morpholine-4-carbonyl)-3-pyridyl]-2-methyl-1H-pyrrolo[2,3-c]pyridin-7-one] showed an IC50 of 32 nM.
Then `C/C=C/Cn1cc(-c2ccc(C(=O)N3CCN(C)CC3)c(Cl)c2)c2cc(C)[nH]c2c1=O` [Example 99, 6-[(E)-but-2-enyl]-4-[3-chloro-4-(4-methylpiperazine-1-carbonyl)phenyl]-2-methyl-1H-pyrrolo[2,3-c]pyridin-7-one], with 9 nM; and `C=CCn1cc(-c2ccc(C(=O)N3CCOCC3)c(Cl)c2)c2cc(C)[nH]c2c1=O` [Example 101, 6-allyl-4-[3-chloro-4-(morpholine-4-carbonyl)phenyl]-2-methyl-1H-pyrrolo[2,3-c]pyridin-7-one], with 12 nM.
Under `C/C=C/Cn1cc(-c2ncc(C(=O)N3CCOCC3)cc2OC)c2cc(C)[nH]c2c1=O` [Example 103, 6-[(E)-but-2-enyl]-4-[3-methoxy-5-(morpholine-4-carbonyl)-2-pyridyl]-2-methyl-1H-pyrrolo[2,3-c]pyridin-7-one] stands 46 nM; under `C/C=C/Cn1cc(-c2cc(Cl)c(C(=O)N3CCOCC3)cn2)c2cc(C)[nH]c2c1=O` [Example 104, 6-[(E)-but-2-enyl]-4-[4-chloro-5-(morpholine-4-carbonyl)-2-pyridyl]-2-methyl-1H-pyrrolo[2,3-c]pyridin-7-one], 22 nM.
For the compound `C/C=C/Cn1cc(-c2cnc(C(=O)N3CCOCC3)nc2)c2cc(C)[nH]c2c1=O` [Example 105, 6-[(E)-but-2-enyl]-2-methyl-4-[2-(morpholine-4-carbonyl)pyrimidin-5-yl]-1H-pyrrolo[2,3-c]pyridin-7-one], the IC50 came to 83 nM.
For `C/C=C/Cn1cc(-c2ccc(C(C)(C)O)cc2OC)c2cc(C)[nH]c2c1=O` [Example 107, 6-[(E)-but-2-enyl]-4-[4-(1-hydroxy-1-methyl-ethyl)-2-methoxy-phenyl]-2-methyl-1H-pyrrolo[2,3-c]pyridin-7-one], the IC50 was found to be 100 nM.
Under `C/C=C/Cn1cc(-c2cc(C(=O)NCc3cnccn3)ccc2OC)c2cc(C)[nH]c2c1=O` [Example 109, 3-[6-[(E)-but-2-enyl]-2-methyl-7-oxo-1H-pyrrolo[2,3-c]pyridin-4-yl]-4-methoxy-N-(pyrazin-2-ylmethyl)benzamide] stands 6 nM.
Compound `C/C=C/Cn1cc(-c2ncc(C(=O)N3CCN(C)CC3)cc2OC)c2cc(C)[nH]c2c1=O` [Example 110, 6-[(E)-but-2-enyl]-4-[3-methoxy-5-(4-methylpiperazine-1-carbonyl)-2-pyridyl]-2-methyl-1H-pyrrolo[2,3-c]pyridin-7-one] came in with an IC50 of 39 nM.
The compound `C/C=C/Cn1cc(-c2ccc(C(=O)N3CCC(C(=O)O)CC3)c(Cl)c2)c2cc(C)[nH]c2c1=O` [Example 112, 1-[4-[6-[(E)-but-2-enyl]-2-methyl-7-oxo-1H-pyrrolo[2,3-c]pyridin-4-yl]-2-chloro-benzoyl]piperidine-4-carboxylic acid] registered a half-maximal inhibitory concentration (IC50) of 8 nM.
Then `C/C=C/Cn1cc(-c2ccc(C(=O)N3CCC(C(N)=O)CC3)c(Cl)c2)c2cc(C)[nH]c2c1=O` [Example 113, (E)-1-(4-(6-(but-2-en-1-yl)-2-methyl-7-oxo-6,7-dihydro-1H-pyrrolo[2,3-c]pyridin-4-yl)-2-chlorobenzoyl)piperidine-4-carboxamide], with 3 nM.
